For experiment [1], the target named is IspH. Format: biochemical.
Experiment [2] relates to IspH. The conditions noted are these: cited from earlier work.
The next experiment deals with IspG. The conditions noted are these: cited from earlier work.

The Ki is the equilibrium dissociation constant of an inhibitor or competing ligand from its target.

Like-named read-outs stand apart in the source and are kept apart here. Some results are limits rather than exact numbers.

Turning to `Nc1ccc2c(c1)CC1(C(=O)NC(=O)NC1=O)C1CN(Cc3ccccc3)CCN21` (stereo not shown) [Compound 9, 8-amino-3-benzyl-2,3,4,4a-tetrahydro-1H,2′H,6H-spiro[pyrazino[1,2-a]quinoline-5,5′-pyrimidine]-2′,4′,6′ (1′H,3′H)-trione], the Ki on IspH [1] (read-out: Ki of barbiturate analogs, IspH (summary over enzymes)) lay within 0.5 to 3 µM. As to `C#CCO` [propargyl alcohol], the Ki on IspH [1] (read-out: IspH inhibition Ki) is greater than 10000 µM. Consider `C#CCOP(=O)(O)OP(=O)(O)O` [Compound 5, propargyl diphosphate], for which the “IspH inhibition (in words)” value in the experiment with IspH [2] is on record as “low μM inhibitors”. In addition, the “IspG inhibition (in words)” value in the experiment on IspG is recorded as “low μM inhibitors”.
